Test results: patent US10519099B2, “Cystobactamides” (priority 2014, dated 2019)
In brackets after ≈: the same amount, converted by molar mass. Positions of bridges follow the written chain, without caps; N, C: chain ends. Non-standard residues stand in square brackets, D forms with d. Residues, ends and D or L forms follow the SMILES beside them. *: point of attachment. Ileψ(thiazoline)Cys = CC[C@H](C)[C@H](N)C1=N[C@H](C(=O)*)CS1; dOrn = NCCC[C@@H](N)C(=O)O

Legend:
[1] = system: Citrobacter freundii DSM-30039; assay: MIC microdilution, C. freundii DSM-30039; format: cell-based; details: Citrobacter freundii, DSM30039; Gram-negative set; read-out: MIC C. freundii DSM-30039
Method: (§1) Indicator strains used in susceptibility assays were either part of our strain collection or purchased from the German Collection of Microorgansims and Cell Cultures (DSMZ) or from the American Type Culture Collection (ATCC). E. coli strain WT and corresponding E. coli mutants were kindly provided by Prof. Dr. P. Heisig, Pharmaceutical Biology and Microbiology, University of Hamburg. E. coli strains JW0401-1 (WT) and Δtsx were obtained from the CGSC collection.
(§2) MIC values were determined in standardized microdilution assays. Overnight cultures were diluted in the appropriate growth medium to achieve an inoculum of 10^4-10^6 cfu/mL. Yeasts were grown in Myc medium (1% phytone peptone, 1% glucose, 50 mM HEPES, pH 7.0), S. pneumonia and Enterococcus spp. in tryptic soy broth (TSB: 1.7% peptone casein, 0.3% peptone soymeal, 0.25% glucose, 0.5% NaCl, 0.25% K2HPO4; pH 7.3); M. smegmatis in Middlebrook 7H9 medium supplemented with 10% Middlebrook ADC enrichment and 2 ml/I glycerol). All other listed bacteria were grown in Müller-Hinton broth (0.2% beef infusion solids, 1.75% casein hydrolysate, 0.15% starch, pH 7.4). Cystobactamides and reference drugs were added directly to the cultures in sterile 96-well plates as duplicates and serial dilutions were prepared. Microorganisms were grown on a microplate shaker (750 rpm, 30-37° C., 18-48 h), except S. pneumonia, which was grown at non-shaking conditions (37° C., 5% CO2, 18 h). Growth inhibition was assessed by visual inspection and the MIC was defined as the lowest concentration of compound that inhibited visible growth.

[2] = system: E. coli DSM-1116; assay: MIC microdilution, E. coli DSM-1116; format: cell-based, Escherichia coli; details: Escherichia coli, DSM1116; Gram-negative set; read-out: MIC E. coli DSM-1116
Method: as §1, §2

[3] = system: E. coli WT; assay: MIC microdilution, E. coli WT; format: cell-based, Escherichia coli; details: Escherichia coli; Gram-negative set; read-out: MIC E. coli WT
Method: as §1, §2

[4] = system: Proteus vulgaris DSM-2140; assay: MIC microdilution, P. vulgaris DSM-2140; format: cell-based; details: Proteus vulgaris, DSM2140; Gram-negative set; read-out: MIC P. vulgaris DSM-2140
Method: as §1, §2

[5] = system: P. aeruginosa DSM-24600 (ESBL); assay: MIC microdilution, P. aeruginosa DSM-24600 (ESBL); format: cell-based, Pseudomonas aeruginosa; details: Pseudomonas aeruginosa, DSM24600; Gram-negative set; read-out: MIC P. aeruginosa DSM-24600 (ESBL)
Method: as §1, §2

[6] = system: E. coli WT-3 [gyrA(S83L, D87G)]; assay: MIC microdilution, E. coli WT-3 [gyrA(S83L, D87G)]; format: cell-based, Escherichia coli; details: Escherichia coli, read-out: MIC E. coli WT-3 [gyrA(S83L, D87G)]
Method: as §1, §2

[7] = system: E. coli WT-III [marRΔ74bp]; assay: MIC microdilution, E. coli WT-III [marRΔ74bp]; format: cell-based, Escherichia coli; details: Gram-negative set
Method: as §1, §2

[8] = system: E. coli DSM-26863 (tolC3); assay: MIC microdilution, E. coli DSM-26863 (tolC3); format: cell-based, Escherichia coli; details: Escherichia coli, DSM26863, read-out: MIC E. coli DSM-26863 (tolC3)
Method: as §1, §2

[9] = system: Acinetobacter baumannii DSM-30008; assay: MIC microdilution, A. baumannii DSM-30008; format: cell-based; details: Acinetobacter baumannii, DSM30008; Gram-negative set; read-out: MIC A. baumannii DSM-30008
Method: as §1, §2

[10] = system: Cystobacter velatus MCy8071; assay: Antibiotic resistance of producer strain MCy8071; format: cell-based; details: final concentration 50 μg ml^−1
Method: MCy8071 is resistant against the following antibiotics: ampicillin, gentamycin, hygromycin, polymycin, bacitracin, spectinomycin, neomycin, and fusidinic acid. Weak growth is possible with cephalosporin and kasugamycin and no growth is possible with thiostrepton, trimethoprin, kanamycin, and oxytetracycline (final concentration of all antibiotics was adjusted to 50 μg ml^−1).

**Q.** With `CCOc1cc(C(=O)O)ccc1NC(=O)c1ccc(NC(=O)c2ccc(NC(=O)C(NC(=O)c3ccc(NC(=O)c4ccc([N+](=O)[O-])cc4)cc3)C(OC)C(N)=O)cc2)c(OC(C)C)c1O` (stereo not shown) [Cys 905-2] as the molecule, how does the MIC [1] read?
**A.** 8 µg/mL (≈ 8.83 µM)

**Q.** What about the MIC [2] of the same molecule?
**A.** 8 µg/mL (≈ 8.83 µM)

**Q.** And the MIC [3]?
**A.** 4 µg/mL (≈ 4.42 µM)

**Q.** What about the MIC [4] of the same molecule?
**A.** 32 µg/mL (≈ 35.3 µM)

**Q.** What about the MIC [5] of the same molecule?
**A.** > 64 µg/mL

**Q.** What about the MIC [6] of the same molecule?
**A.** > 64 µg/mL

**Q.** What about the “MIC E. coli WT-III [marRΔ74bp]” value [7] of the same molecule?
**A.** >64 µg/mL

**Q.** And the MIC [8]?
**A.** 2 µg/mL (≈ 2.21 µM)

**Q.** What about the MIC [9] of the same molecule?
**A.** 64 µg/mL (≈ 70.7 µM)

**Q.** Which MIC [1] does the source give for `CCC(C)Oc1cc(C(=O)O)ccc1NC(=O)c1ccc(NC(=O)c2ccc(NC(=O)C(OC)C(NC(=O)c3ccc(NC(=O)c4ccc([N+](=O)[O-])cc4)cc3)C(=O)O)cc2)c(OC(C)C)c1O` (stereo not shown) [Cys 934-2] here?
**A.** > 64 µg/mL

**Q.** What about the MIC [2] of the same molecule?
**A.** > 64 µg/mL

**Q.** What about the MIC [3] of the same molecule?
**A.** > 64 µg/mL

**Q.** And the MIC [4]?
**A.** > 64 µg/mL

**Q.** What about the MIC [5] of the same molecule?
**A.** > 64 µg/mL

**Q.** And the MIC [6]?
**A.** > 64 µg/mL

**Q.** And the “MIC E. coli WT-III [marRΔ74bp]” value [7]?
**A.** >64 µg/mL

**Q.** What about the MIC [8] of the same molecule?
**A.** 32 µg/mL (≈ 34.2 µM)

**Q.** And the MIC [9]?
**A.** > 64 µg/mL

**Q.** Which results are given for `COC(C(N)=O)C(NC(=O)c1ccc(NC(=O)c2ccc([N+](=O)[O-])cc2)cc1)C(=O)Nc1ccc(C(=O)Nc2ccc(C(=O)Nc3ccc(C(=O)O)c(O)c3OC(C)C)c(O)c2OC(C)C)cc1` (stereo not shown) [Cys 935-2]?
**A.** MIC [1]: 1 µg/mL (≈ 1.07 µM); MIC [2]: 0.5 µg/mL (≈ 0.534 µM); MIC [3]: 0.5 µg/mL (≈ 0.534 µM); MIC [4]: 1 µg/mL (≈ 1.07 µM); MIC [5]: 8 µg/mL (≈ 8.55 µM); MIC [6]: 2 µg/mL (≈ 2.14 µM); MIC E. coli WT-III [marRΔ74bp] [7]: 2 µg/mL (≈ 2.14 µM); MIC [8]: 0.25 µg/mL (≈ 0.267 µM); MIC [9]: 2 µg/mL (≈ 2.14 µM)

**Q.** How did the “growth of strain MCy8071 in presence of antibiotic” value (from here on “growth of strain MCy8071”) [10] turn out when `CC1(C)S[C@@H]2[C@H](NC(=O)[C@H](N)c3ccccc3)C(=O)N2[C@H]1C(=O)O` [ampicillin] was run?
**A.** resistant

**Q.** Which “growth of strain MCy8071” value [10] does the source give for gentamycin here?
**A.** resistant

**Q.** How did the “growth of strain MCy8071” value [10] turn out when `CC[C@H](C)[C@H](N)C1=N[C@H](C(=O)N[C@@H](CC(C)C)C(=O)N[C@H](CCC(=O)O)C(=O)N[C@H](C(=O)N[C@H]2CCCCNC(=O)[C@H](CC(N)=O)NC(=O)[C@@H](CC(=O)O)NC(=O)[C@H](Cc3cnc[nH]3)NC(=O)[C@@H](Cc3ccccc3)NC(=O)[C@H]([C@@H](C)CC)NC(=O)[C@@H](CCCN)NC2=O)[C@@H](C)CC)CS1` [bacitracin] ({Ileψ(thiazoline)Cys}-L[dE]IK[dOrn]I[dF]H[dD]N; lactam 4-C) was run?
**A.** resistant

**Q.** For `COC(C(=O)O)C(NC(=O)c1ccc(NC(=O)c2ccc([N+](=O)[O-])cc2)cc1)C(=O)Nc1ccc(C(=O)Nc2ccc(C(=O)Nc3ccc(C(=O)O)cc3OC(C)C)c(O)c2OC(C)C)cc1` (stereo not shown) [Cys 920-1], which MIC [1] is on record?
**A.** > 64 µg/mL

**Q.** What about the MIC [2] of the same molecule?
**A.** > 64 µg/mL

**Q.** What about the MIC [3] of the same molecule?
**A.** > 64 µg/mL

**Q.** What about the MIC [4] of the same molecule?
**A.** > 64 µg/mL

**Q.** And the MIC [5]?
**A.** > 64 µg/mL

**Q.** What about the MIC [6] of the same molecule?
**A.** > 64 µg/mL

**Q.** And the “MIC E. coli WT-III [marRΔ74bp]” value [7]?
**A.** >64 µg/mL

**Q.** What about the MIC [8] of the same molecule?
**A.** 64 µg/mL (≈ 69.5 µM)

**Q.** And the MIC [9]?
**A.** > 64 µg/mL

**Q.** `CC(=O)O[C@H]1C[C@@]2(C)[C@@H](C[C@@H](O)[C@H]3[C@@]4(C)CC[C@@H](O)[C@@H](C)[C@@H]4CC[C@@]32C)/C1=C(\CCC=C(C)C)C(=O)O` [fusidinic acid] was tested. Which “growth of strain MCy8071” value [10] did it give?
**A.** resistant

**Q.** Which “growth of strain MCy8071” value [10] does the source give for `C[C@H]1O[C@H](O[C@H]2[C@H](O)[C@@H](O)[C@@H](O)[C@H](O)[C@@H]2O)[C@@H](N)C[C@@H]1NC(=N)C(=O)O` [kasugamycin] here?
**A.** Weak growth

**Q.** How did the “growth of strain MCy8071” value [10] turn out when neomycin was run?
**A.** resistant

**Q.** Which “growth of strain MCy8071” value [10] does the source give for `CN[C@@H]1[C@H](O)[C@H](NC)[C@H]2O[C@@]3(O)C(=O)C[C@@H](C)O[C@H]3O[C@@H]2[C@H]1O` [spectinomycin] here?
**A.** resistant

**Q.** Which “growth of strain MCy8071” value [10] does the source give for polymycin here?
**A.** resistant

**Q.** Which “growth of strain MCy8071” value [10] does the source give for `COc1cc(Cc2cnc(N)nc2N)cc(OC)c1OC` [trimethoprin] here?
**A.** no growth

**Q.** For `C=C(NC(=O)C(=C)NC(=O)c1csc(C2=N[C@@H]3c4csc(n4)[C@H]4NC(=O)c5csc(n5)[C@H]([C@](C)(O)[C@@H](C)O)NC(=O)[C@H]5CSC(=N5)/C(=C/C)NC(=O)[C@H]([C@@H](C)O)NC(=O)c5csc(n5)[C@]3(CC2)NC(=O)[C@H](C)NC(=O)C(=C)NC(=O)[C@H](C)NC(=O)[C@H]([C@@H](C)CC)N[C@@H]2C=Cc3c([C@H](C)O)cc(nc3[C@H]2O)C(=O)O[C@@H]4C)n1)C(N)=O` [thiostrepton], which “growth of strain MCy8071” value [10] is on record?
**A.** no growth
